The source of these data is US20210024483A1, “HETEROCYLCOALKENYL DERIVATIVES USEFUL AS AGONISTS OF THE GPR120 AND / OR GPR40” (Janssen Pharmaceutica NV, priority 2018, published 2021).

Structures are written as SMILES.

For experiment [1], the target named is GPR40 (UniProt O14842). The experiment can be described thus: GPR40 Calcium Flux Assay. In kind it is cell-based. As to conditions: transfected HEK293 cells stably expressing human or rat GPR40; species not given. On the technique in general: A change in cytosolic calcium serves as a functional read-out for many receptors and channels.
Experiment [2] relates to DIO mice (C57Bl6 on high fat diet). The experiment can be described thus: GPR120 DIO Mice OGTT Screening. In kind it is in vivo, mouse. The conditions noted are these: 3 mg/kg, glucose AUC −30 to 90 min, change from vehicle. The method, then:
GPR120 DIO Mice OGTT Screening
18-22 week old, C57Bl6 mice on a high fat diet (60% HFD) for 12-16 weeks (average body weight ˜37-41 g) were fasted for 6 hr, with removal of food occurring at 7 am on the morning of the study. The animals were sorted into treatment groups the day before the study by body weight. Animals outside the bounds of ˜30-50 g were left out of the study. The animals had been handled and shammed a total of 5-8 days (1-3 days immediately prior to the study). Glucose (in 1 mL syringes) was drawn up the morning of the study. Test compounds were kept spinning and were only drawn into 1 ml syringes prior to study commencement. […]
Animals were moved into the testing room at ˜9-11 am, to yield them time to acclimate. […] All groups were dosed 30 minutes prior to glucose administration at a dose volume of 10 ml/kg (the dose volume was calculated separately for each individual animal). […]
Thirty minutes after the first dose (with test compound) animals were bled again for a second baseline, or T=0, and immediately dosed with glucose (20% solution; TEKNOVA, 250 ml sterile bottle w/catalogue number G0525) via a PO injection. The exact dose volume for glucose was also calculated separately for each individual animal.
Blood glucose was measured at 15, 30, 45, 60, and 90 minutes post-glucose administration via the snipped tail. […]

In the case of `Cc1c(CCC(=O)O)ccc(OCC2=C(c3ccc(Cl)cc3)COCC2)c1C` [ID No. 745, 3-[4-[[5-(4-chlorophenyl)-3,6-dihydro-2H-pyran-4-yl]methoxy]-2,3-dimethyl-phenyl]propanoic acid], in experiment [1], the EC50 is above 10 µM. Also, the “DIO lowering (−30 to 90)” value in experiment [2] is on record as −63%.

As usually defined, the EC50 is the midpoint of the concentration-response curve.
